# Measured values from patent EP0494754A1, “3-hydroxypyridin-4-one derivatives as pharmaceutical compositions” (BRITISH TECHNOLOGY GROUP LTD, priority 1991, dated 1992).
# How the values were obtained:
# Type in all cases: cell-based
# [1] = system: P. falciparum; assay: Inhibition of growth of P. falciparum in red cell culture (tritiated hypoxanthine uptake, continuous exposure to chelator)
# Experimental: (A) An uncloned strain of P. falciparum, ITO4, was grown on blood group O red cells using a modification of the method described by Trager et al in Science, 1976, […], 673. An atmopshere consisting of 1% oxygen, 3% carbon dioxide and 96% nitrogen was maintained throughout the experiments. Red cells were suspended at a hematocrit of 3% in RPMI 1640 that had been supplemented with 10% v/v human serum, 2 g/l glucose, 4 mM NaOH, 25 µg/ml gentamicin, 1.9 mM glutamine and 25 mM HEPES to form complete medium. For experimental purposes the red cells were then further diluted with the same medium to a final hematocrit of 1.5%. Synchronised parasite cultures were obtained using a combination of sorbitol lysis and gelatin flotation, as described respectively by Jensen et al in Am. J. Trop. Med. Hyg., 1978, 27, 1274 and Lambros et al in J. Parasitol., 1979, 65, 418, thus ensuring that only young ring forms remained. The starting parasitemia in each experiment was between 0.1 and 0.5%.
# A red cell suspension containing only recently synchronised ring parasites was treated with 0.2 µCi of tritiated hypoxanthine per 100 µl of red cell suspension and one of ten chelating agents as identified in the Table was added in complete medium to the suspension in an amount such as to produce an iron binding concentration of 100 µmol of iron per litre (all of the chelators combine with iron in a ratio of 3 moles of chelator:1 mole of iron apart from the chelator number 10, desferrioxamine, which combines in a 1:1 molar ratio). The test cultures were immediately dispersed in 200 µl aliquots into 96 well microculture plates. Each chelator was tested in three or more wells and the whole experiment was carried out at least twice for each chelator. Control cultures were used in each experiment which contained no iron chelator.
# The growth of the P. falciparum parasites was assessed both by light microscopy examination of thin films that had been stained with Giemsa and through measurement of tritiated hypoxanthine uptake, the cell cultures being harvested onto glass fibre filters and radioactivity, in terms of beta emission from each well, being measured in a flat bed liquid scintillation counter as described by Potter et al in Phys. Med. Biol., 1986, 31(4), 361.
# The chelators tested consisted of 1-(2′-carboxyethyl)-3-hydroxy-2-methylpyridin-4-one (R₁ = CH₂CH₂CO₂H, R₂ = CH₃, R₃ = R₄ = H; compound 1) and, for the purposes of comparison with this chelator, nine other chelators not of formula (I) as defined hereinbefore, of which compounds 2 to 9 are 3-hydroxypyridin-4-ones and compound 10 is desferrioxamine. […] These findings were supported by a morphological examination of red cells sampled from the cultures. […] (B) The effect of using different dosage levels than the 100 µmol/l level used in (A) was studied employing the same procedure but using four dosage levels of 10 µmol/l, 25 µmol/l, 50 µmol/l and […]. Only the eight chelators which produced an inhibitory effect at 100 µmol/l were studied and controls containing no iron chelator were again employed.
# [2] = system: P. falciparum; assay: Red cell reinvasion at the beginning of the second parasite cycle (light microscopy)
# Experimental: A study was made of red cells from cultures involving various dosage levels harvested at the beginning of the second parasite cycle, when young rings could be identified in untreated control cultures in order to determine whether or not red cell reinvasion had occurred in the cultures that had been exposed to a chelator. […] However, for the 3-hydroxypyridin-4-one compounds 1 to 6 and 9, young ring parasites were frequently found after incubation at a 25 µmol/l dosage level of the chelator and were always found at a 10 µmol/l dosage level, no significant differences being seen between the different compounds. At 50 µmol/l and 100 µmol/l no evidence of reinvasion was found. Thus, although the 3-hydroxypyridin-4-ones do produce growth inhibition at the lower dosage levels of 10 µmol/l and 25 µmol/l, higher levels than this are required to produce a cytocidal action.
# [3] = system: MEL cells, clone 585; assay: Inhibition of growth of murine erythroleukaemia (MEL) cells, cell counting; conditions: 50 µmol/l iron binding concentration; after 30 hours; Figure 2
# Experimental: MEL cells, clone 585, were grown in suspension culture at 37°C in RPMI 1640 that had been supplemented with 13% v/v foetal calf serum, 25 µl/ml gentamicin, 1.9 mM glutamine and 2% diaminopurine as described by Peto et al in Br. J. Haematol., 1983, 54, 623. The cultures were maintained in an atmosphere containing 5% carbon dioxide and passaged every 3-4 days at a seeding concentration of 1-2 x 10⁴/ml to ensure that the cells were continually in logarithmic growth phase. Under these conditions, the doubling time for cell growth was 30-36 hours.
# 10 ml volumes of cell suspension were incubated in 50 ml flasks with each of the ten chelators identified in the Table at a 50 µmol/l iron binding concentration, controls being employed which contained no chelator. 400 µl aliquots were removed in duplicate for growth assessment at 24 hour intervals over the next four days. The experiment was repeated on three separate occasions, the initial cell concentration in each case being 2-3 x 10⁴ cells/ml. Cell growth was assessed both by examination of cultures using light microscopy and by cell counting. At various times throughout each experiment, 400 µl culture was added to 19.6 ml Isoton and the number of particles counted using a Coulter Counter ZN set at threshold 20 and attenuation 0.4
# The effect of the different chelators on growth of the MEL cells after 30 hours was compared with the effect produced after a similar time by the same chelators at a 50 µmol/l iron binding concentration using the procedure described in Example 2(A). The results are illustrated in Figure 2. It will be seen that the compounds 2, 3, 4, 5, 6, 9 and 10 inhibited growth of MEL cells and of P. falciparum, the minimum growth inhibition being 80% and 70% respectively. […] When these two groups of chelators were examined together a close linear correlation (r = 0.978) was found between the degree of growth inhibition produced in both types of cell for each chelator studied. The compound 1 was distinguished from all of the other chelators in being the only one to have no significant inhibitory effect on the growth of MEL cells (<10%) whilst at the same time producing a substantial inhibitory effect on the growth of P. falciparum (>75%).
compound,measurement,setting,value
"CC(=O)N(O)CCCCCNC(=O)CCC(=O)N(O)CCCCCNC(=O)CCC(=O)N(O)CCCCCN [compound 10, Desferrioxamine]",growth inhibition of P. falciparum,"[1]; 50 µmol/l iron binding concentration, after 30 hours, Figure 2",≥ 70%
same,IC50,"[1]; Plasmodium falciparum, four dosage levels (iron binding concentration), same procedure as (A), read-out: ID50 (the source's name)",10 to 20 µM
same,percentage inhibition of growth after 30 hours as compared with the controls,"[1]; iron binding concentration of 100 µmol of iron per litre, 30 hours, Figure 1",more than 65%
same,red cell reinvasion (young ring parasites),[2]; 10 µmol/l dosage level,always found
same,red cell reinvasion (young ring parasites),[2]; 25 µmol/l dosage level,No evidence was found of reinvasion
same,red cell reinvasion (young ring parasites),[2]; 50 µmol/l dosage level,No evidence was found of reinvasion
same,red cell reinvasion (young ring parasites),[2]; 100 µmol/l dosage level,No evidence was found of reinvasion
same,growth inhibition of MEL cells,[3],≥ 80%
